The nature of data set [1]: Solubility in nematic LC mixture LCT-06-441 (crystallisation on cooling). The class given is physicochemical. The note with it: 5% by weight in LCT-06-441, stirred at 50° C. for ½ hour, then cooled to room temperature without stirring. The method, then: The solubility of compound (1) is compared with the solubility of the structurally analogous compound (A) known from the prior art (for example EP 1 498 468 A1), in which the polymerisable groups are linked in the para-position to the mesogenic group:
To this end, each compound is dissolved in the commercially available nematic LC mixture LCT-06-441 (Merck KGaA, Darmstadt) in a concentration of 5% by weight with stirring at 50° C. (½ hour) and then cooled to room temperature without stirring.

Here are results for five molecules from patent US8313669B2, “Liquid-crystal display” (Merck Patent Gesellschaft mit Beschränkter Haftung, priority 2007, dated 2012).

In the case of `C=C(C)C(=O)Oc1ccc(-c2ccc(OC(=O)C(=C)C)cc2)cc1` [(A), reference compound], the “Solubility (crystallisation behaviour)” value in data set [1] was “Immediately crystallises out on cooling to RT”.

The melting point is the temperature, or range, at which the solid turns liquid. Consider `C=CC(=O)Oc1cccc(-c2cccc(OC(=O)C=C)c2)c1` [(2), 3′-Acryloyloxybiphenyl-3-yl acrylate], for which the melting point came out at 48 °C. With `C=C(C)C(=O)OCCCOc1cccc(-c2cccc(OC(=O)C(=C)C)c2)c1` [(3), 3′-[3-(2-Methylacryloyloxy)propoxy]biphenyl-3-yl 2-methylacrylate], the melting point was found to be 49 °C. With `C=C(C)C(=O)OCCCCc1cc(-c2ccc(OC(=O)C(=C)C)cc2)ccc1OC(=O)C(=C)C` [(9), 4′-(2-Methylacryloyloxy)-3-[4-(2-methylacryloyloxy)butyl]biphenyl-4-yl 2-methylacrylate], the melting point worked out at 76 °C. `C=C(C)C(=O)Oc1cccc(-c2cccc(OC(=O)C(=C)C)c2)c1` [(1), 3′-(2-Methylacryloyloxy)biphenyl-3-yl 2-methylacrylate] showed a melting point of 70 °C. In data set [1], the “Solubility (crystallisation behaviour)” value is “Crystallises out overnight at RT”.
